Target: T1, AsfvLIG (African swine fever virus BA71V, UniProt P35970)
T1 construct: gene LIG
Conditions: non-catalytic AsfvLIG:DNA complex; no Mg2+; bound in the adenylation domain near catalytic Lys151

T1 sequence (P35970 whole entry, looked up): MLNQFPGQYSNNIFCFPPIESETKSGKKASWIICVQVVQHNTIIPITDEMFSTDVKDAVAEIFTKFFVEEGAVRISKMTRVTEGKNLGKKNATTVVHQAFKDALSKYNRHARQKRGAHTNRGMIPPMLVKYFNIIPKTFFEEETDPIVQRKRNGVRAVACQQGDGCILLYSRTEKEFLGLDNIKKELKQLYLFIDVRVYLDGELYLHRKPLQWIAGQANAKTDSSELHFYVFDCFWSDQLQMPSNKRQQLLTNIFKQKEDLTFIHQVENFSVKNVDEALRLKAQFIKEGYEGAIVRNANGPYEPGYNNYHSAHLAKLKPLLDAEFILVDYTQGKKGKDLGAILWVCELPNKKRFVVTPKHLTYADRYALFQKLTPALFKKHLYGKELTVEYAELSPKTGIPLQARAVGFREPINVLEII

## Nc1ncnc2c1ncn2[C@@H]1O[C@H](COP(=O)(O)OP(=O)(O)OP(=O)(O)O)[C@@H](O)[C@H]1O [ATP]
  X-ray crystal structure (Se-SAD): the ATP is bound by the AD domain and stabilized by various interactions
